Laboratory results taken from patent publication US12441754B2, “Galactoside inhibitor of galectins” (GALECTO BIOTECH AB, priority 2019, dated 2025).
pKd: −log10 of the molar value.

How the values were obtained:
galectins = test system: T1, galectins; conditions: cited from earlier work
T1 construct: Kd, all galectins; other: compared with lactose

Galectin-3 = Galectin-3 (Homo sapiens, UniProt P17931); assay: fluorescence anisotropy assay, compound as inhibitor of galectin / fluorescein tagged saccharide probe interaction; assay type: binding
Description: (§1) Anal. Biochem. 334: 36-47, (Sörme et al., 2004) and Monovalent interactions of Galectin-1 By Salomonsson, Emma; Larumbe, Amaia; Tejler, Johan; Tullberg, Erik; Rydberg, Hanna; Sundin, Anders; Khabut, Areej; Frejd, Torbjorn; Lobsanov, Yuri D.; Rini, James M.; et al, From Biochemistry (2010), 49(44), 9518-9532, (Salomonsson et al., 2010).

Galectin-1 = Galectin-1 (Homo sapiens, UniProt P09382); assay: as above; assay type: binding
Description: as §1

Sequence of Galectin-3 (P17931 whole entry): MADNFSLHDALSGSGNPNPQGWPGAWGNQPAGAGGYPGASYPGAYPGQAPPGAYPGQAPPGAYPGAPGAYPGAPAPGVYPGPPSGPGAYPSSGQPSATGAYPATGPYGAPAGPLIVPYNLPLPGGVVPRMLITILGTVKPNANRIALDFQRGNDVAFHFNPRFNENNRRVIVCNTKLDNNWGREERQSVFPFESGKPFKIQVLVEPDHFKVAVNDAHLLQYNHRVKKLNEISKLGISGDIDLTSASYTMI
Sequence of Galectin-1 (P09382 whole entry): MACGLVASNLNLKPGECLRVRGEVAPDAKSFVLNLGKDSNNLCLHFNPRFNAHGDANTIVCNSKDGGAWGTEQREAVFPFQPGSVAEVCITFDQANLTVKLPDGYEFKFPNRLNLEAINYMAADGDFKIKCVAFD

SMILES | pKd (Galectin-3) | pKd (Galectin-1) | affinity relative to lactose (times lower) (galectins; compared with lactose) | pKd (galectins; read-out: Kd, all galectins)
O=C[C@H](O)[C@@H](O)[C@@H](O)[C@H](O)CO [D-galactose] | – | – | 50-100 times | –
C#Cc1cncc(S[C@H]2O[C@H](CO)[C@H](O)[C@H](n3cc(-c4csc(N)n4)nn3)[C@H]2OC)c1 [Example 81, 5-Ethynylpyridin-3-yl 3-[4-(2-aminothiazol-4-yl)-1H-1,2,3-triazol-1-yl]-3-deoxy-2-O-methyl-1-thio-α-D-galactopyranoside] | 5.18 | 6.72 | – | –
CO[C@@H]1[C@@H](n2cc(-c3nc(Cl)cs3)nn2)[C@@H](O)[C@@H](CO)O[C@@H]1Sc1cncc(C#N)c1 [Example 82, 5-Cyanopyridin-3-yl 3-[4-(4-chlorothiazol-2-yl)-1H-1,2,3-triazol-1-yl]-3-deoxy-2-O-methyl-1-thio-α-D-galactopyranoside] | 6.28 | 6.77 | – | –
CO[C@@H]1[C@@H](n2cc(-c3csc(O)n3)nn2)[C@@H](O)[C@@H](CO)O[C@@H]1Sc1cncc(C#N)c1 [Example 83, 5-Cyanopyridin-3-yl 3-deoxy-3-[4-(2-hydroxythiazol-4-yl)-1H-1,2,3-triazol-1-yl]-2-O-methyl-1-thio-α-D-galactopyranoside] | 5.24 | 6.82 | – | –
C#Cc1cnc(C#N)c(S[C@H]2O[C@H](CO)[C@H](O)[C@H](n3cc(-c4csc(N)n4)nn3)[C@H]2O)c1 [Example 84, 2-Cyano-5-ethynylpyridin-3-yl 3-[4-(2-aminothiazol-4-yl)-1H-1,2,3-triazol-1-yl]-3-deoxy-1-thio-α-D-galactopyranoside] | 5.39 | 6.27 | – | –
C#Cc1cnc(C#N)c(S[C@H]2O[C@H](CO)[C@H](O)[C@H](n3cc(-c4csc(N)n4)nn3)[C@H]2OC)c1 [Example 85, 2-Cyano-5-ethynylpyridin-3-yl 3-[4-(2-aminothiazol-4-yl)-1H-1,2,3-triazol-1-yl]-3-deoxy-2-O-methyl-1-thio-α-D-galactopyranoside] | 5.11 | 6.96 | – | –
CCO[C@@H]1[C@@H](n2cc(-c3csc(N)n3)nn2)[C@@H](O)[C@@H](CO)O[C@@H]1Sc1ccc(Cl)c(Cl)c1 [Example 87, 3,4-Dichlorophenyl 3-[4-(2-aminothiazol-4-yl)-1H-1,2,3-triazol-1-yl]-3-deoxy-2-O-ethyl-1-thio-α-D-galactopyranoside] | 5.26 | 6.96 | – | –
CCOC1C(n2cc(-c3csc(N)n3)nn2)[C@@H](O)C(CO)O[C@@H]1Sc1ccc(C#N)c(Cl)c1 (stereo partly drawn) [Example 88] | 5.11 | 6.89 | – | –
N#Cc1ccc(S[C@@H]2C[C@@H](n3cc(-c4csc(O)n4)nn3)[C@@H](O)[C@@H](CO)O2)cc1Cl [Example 89, 3-Chloro-4-cyanophenyl 2,3-dideoxy-3-[4-(2-hydroxythiazol-4-yl)-1H-1,2,3-triazol-1-yl]-1-thio-α-D-galactopyranoside] | 4.98 | 6.68 | – | –
CO[C@@H]1[C@@H](n2cc(-c3csc(O)n3)nn2)[C@@H](O)[C@@H](CO)O[C@@H]1Sc1ccc2ncsc2c1 [Example 98, 1,3-Benzothiazol-6-yl 3-deoxy-3-[4-(2-hydroxythiazol-4-yl)-1H-1,2,3-triazol-1-yl]-2-O-methyl-1-thio-α-D-galactopyranoside] | 5.19 | 7.19 | – | –
CO[C@@H]1[C@@H](n2cc(-c3csc(N)n3)nn2)[C@@H](O)[C@@H](CO)O[C@@H]1Sc1ccc2ncsc2c1 [Example 99, 1,3-Benzothiazol-6-yl 3-[4-(2-aminothiazol-4-yl)-1H-1,2,3-triazol-1-yl]-3-deoxy-2-O-methyl-1-thio-α-D-galactopyranoside] | 5.12 | 6.74 | – | –
CO[C@@H]1[C@@H](n2cc(-c3nc(Cl)cs3)nn2)[C@@H](O)[C@@H](CO)O[C@@H]1Sc1cncc(SC(F)(F)F)c1 [Example 103, 5-(Trifluoromethylsulfanyl)pyridin-3-yl 3-[4-(4-chlorothiazol-2-yl)-1H-1,2,3-triazol-1-yl]-3-deoxy-2-O-methyl-1-thio-α-D-galactopyranoside] | 6.00 | 6.48 | – | –
OC[C@H]1O[C@@H](O[C@H]2[C@H](O)[C@@H](O)C(O)O[C@@H]2CO)[C@H](O)[C@@H](O)[C@H]1O (stereo partly drawn) [lactose] | – | – | – | 3.00 to 4.00

Now from value to molecule, other results behind:

pKd (Galectin-3) | pKd (Galectin-1) | SMILES | affinity relative to lactose (times lower) (galectins; compared with lactose) | pKd (galectins; read-out: Kd, all galectins)
6.77 | 7.66 | CCO[C@@H]1[C@@H](n2cc(-c3nc(Cl)cs3)nn2)[C@@H](O)[C@@H](CO)O[C@@H]1Sc1cc(Br)cnc1C#N [Example 86, 5-Bromo-2-cyanopyridin-3-yl 3-[4-(4-chlorothiazol-2-yl)-1H-1,2,3-triazol-1-yl]-3-deoxy-2-O-ethyl-1-thio-α-D-galactopyranoside] | – | –
7.36 | 8.07 | CCO[C@@H]1[C@@H](n2cc(-c3nc(Cl)cs3)nn2)[C@@H](O)[C@@H](CO)O[C@@H]1Sc1cc(Br)cnc1C(=O)N(C)C [Example 90, 5-Bromo-2-(N,N-dimethylcarbamoyl)pyridin-3-yl 3-[4-(4-chlorothiazol-2-yl)-1H-1,2,3-triazol-1-yl]-3-deoxy-2-O-ethyl-1-thio-α-D-galactopyranoside] | – | –
7.29 | 7.62 | C#Cc1cnc(C(=O)N(C)C)c(S[C@H]2O[C@H](CO)[C@H](O)[C@H](n3cc(-c4nc(Cl)cs4)nn3)[C@H]2OC)c1 [Example 91, 5-Ethynyl-2-(N,N-dimethylcarbamoyl)pyridin-3-yl 3-[4-(4-chlorothiazol-2-yl)-1H-1,2,3-triazol-1-yl]-3-deoxy-2-O-methyl-1-thio-α-D-galactopyranoside] | – | –
7.00 | 7.49 | C#Cc1cnc(C(=O)N2CCC2)c(S[C@H]2OC(CO)[C@H](O)C(n3cc(-c4nc(Cl)cs4)nn3)C2OC)c1 (stereo partly drawn) [Example 92, 2-(N-Azetidinylcarbamoyl)-5-ethynylpyridin-3-yl 3-[4-(4-chlorothiazol-2-yl)-1H-1,2,3-triazol-1-yl]-3-deoxy-2-O-methyl-1-thio-α-D-galactopyranoside] | – | –
7.32 | 7.82 | CNC(=O)c1ncc(Cl)cc1S[C@H]1O[C@H](CO)[C@H](O)[C@H](n2cc(-c3nc(Cl)cs3)nn2)[C@H]1OC [Example 93, 5-Chloro-2-(N-methylcarbamoyl)pyridin-3-yl 3-[4-(4-chlorothiazol-2-yl)-1H-1,2,3-triazol-1-yl]-3-deoxy-2-O-methyl-1-thio-α-D-galactopyranoside] | – | –
7.13 | 7.92 | CCNC(=O)c1ncc(Cl)cc1S[C@H]1O[C@H](CO)[C@H](O)[C@H](n2cc(-c3nc(Cl)cs3)nn2)[C@H]1OC [Example 94, 5-Chloro-2-(N-ethylcarbamoyl)pyridin-3-yl 3-[4-(4-chlorothiazol-2-yl)-1H-1,2,3-triazol-1-yl]-3-deoxy-2-O-methyl-1-thio-α-D-galactopyranoside] | – | –
7.03 | 8.10 | CCO[C@@H]1[C@@H](n2cc(-c3nc(Cl)cs3)nn2)[C@@H](O)[C@@H](CO)O[C@@H]1Sc1cc(Cl)cnc1C(=O)NC [Example 95, 5-Chloro-2-(N-methylcarbamoyl)pyridin-3-yl 3-[4-(4-chlorothiazol-2-yl)-1H-1,2,3-triazol-1-yl]-3-deoxy-2-O-ethyl-1-thio-α-D-galactopyranoside] | – | –
6.68 | 7.66 | CO[C@@H]1[C@@H](n2cc(-c3nc(Cl)cs3)nn2)[C@@H](O)[C@@H](CO)O[C@@H]1Sc1cc(Cl)ccc1C#N [Example 96, 5-Chloro-2-cyanophenyl 3-[4-(4-chlorothiazol-2-yl)-1H-1,2,3-triazol-1-yl]-3-deoxy-2-O-methyl-1-thio-α-D-galactopyranoside] | – | –
6.49 | 7.08 | CO[C@@H]1[C@@H](n2cc(-c3nc(Cl)cs3)nn2)[C@@H](O)[C@@H](CO)O[C@@H]1Sc1ccc2ncsc2c1 [Example 97, 1,3-Benzothiazol-6-yl 3-[4-(4-chlorothiazol-2-yl)-1H-1,2,3-triazol-1-yl]-3-deoxy-2-O-methyl-1-thio-α-D-galactopyranoside] | – | –
6.74 | 7.49 | CO[C@@H]1[C@@H](n2cc(-c3nc(Cl)cs3)nn2)[C@@H](O)[C@@H](CO)O[C@@H]1Sc1cc2scnc2cc1C#N [Example 100, 5-Cyano-1,3-benzothiazol-6-yl 3-[4-(4-chlorothiazol-2-yl)-1H-1,2,3-triazol-1-yl]-3-deoxy-2-O-methyl-1-thio-α-D-galactopyranoside] | – | –
6.40 | 6.96 | CO[C@@H]1[C@@H](n2cc(-c3nc(Cl)cs3)nn2)[C@@H](O)[C@@H](CO)O[C@@H]1Sc1cnc2ncsc2c1 [Example 101, Thiazolo[4,5-b]pyridin-6-yl 3-[4-(4-chlorothiazol-2-yl)-1H-1,2,3-triazol-1-yl]-3-deoxy-2-O-methyl-1-thio-α-D-galactopyranoside] | – | –
6.38 | 6.72 | CO[C@@H]1[C@@H](n2cc(-c3nc(Cl)cs3)nn2)[C@@H](O)[C@@H](CO)O[C@@H]1Sc1cncc(SC)c1 [Example 102, 5-Methylsulfanylpyridin-3-yl 3-[4-(4-chlorothiazol-2-yl)-1H-1,2,3-triazol-1-yl]-3-deoxy-2-O-methyl-1-thio-α-D-galactopyranoside] | – | –
